This assay concerns C57BL6J mice. Put plainly: Catalepsy bar test (tetrabenazine / haloperidol induced). The format is in vivo, mouse. The settings on record: 10.0 & 20.0 mg/kg s.c., 60 min post inj., vs vehicle. The text has this: Catalepsy, characterized by muscular rigidity and fixity of posture irrespective of external stimuli (Mann et al. 2015, Karuppagounder et al 2012) is a recognized model for Parkinson's disease (PD) in rodents, induced by dopamine (DA) antagonists such as haloperidol, and DA depleting agents like tetrabenazine (TBZ) (Jastrzębska-Więsek et al. 2022, Bhangale et al. 2016). TBZ, a reversible inhibitor of the type-2 vesicular monoamine transporter, primarily affects dopamine neurons by blocking vesicular storage and depleting monoamines (Jastrzębska-Więsek et al. 2022). In contrast, Haloperidol, a nonselective D2 dopamine antagonist, […] (Bhangale et al. 2016). C57BL6J mice are administered TBZ/Haloperidol at t=0 min and 4-F, 5-MeO-PyrT at t=30 min via subcutaneous injection, with Haloperidol (0.5 mg/kg) given intraperitoneal injection. Mice are tested individually at t=60 min, and catalepsy is defined by the absence of movement for 30-60 seconds with a cutoff time set to 60 second. […] The automated Maze Engineers Catalepsy Bar test, featuring sensors to detect forelimb removal from the bar, facilitates automatic recording of forelimb movement duration from the bar to the ground.

Here are results for one compound from patent publication US20260034119A1, “5-METHOXY-N,N-[…][…], THEIR […], AND METHODS FOR TREATMENT OF NEUROLOGICAL, […], AND SUBSTANCE USE DISORDERS” (priority 2023, published 2026).

On to `COc1cc2c(cc1OC)C1CC(=O)C(CC(C)C)CN1CC2` (stereo not shown) [Tetrabenazine], for which the induction of catalepsy entry was “significantly induces catalepsy”.
